Laboratory results reported in patent publication US20230158025A1 (UNIVERSITY OF UTAH RESEARCH FOUNDATION, priority 2020, published 2023).
Read-outs that look alike come from different tables or passages of the source.

What was measured:
[1] = target: recombinant mouse GALK1 (Mus musculus, UniProt Q9R0N0); assay: mGALK1 biochemical activity assay (Kinase-Glo Plus, ATP depletion)
Method in brief: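 Recombinant GALK1 (5 nM) with 100 μM galactose; GALK1 turnover read as ATP depletion by Kinase-Glo Plus luminescence. Reaction ran 1 h at room temperature before detection reagent was added.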

[2] = aqueous kinetic solubility
[3] = rat microsomal stability (RLM)
[4] = target: recombinant human GALK1 (Homo sapiens, UniProt P51570); assay: hGALK1 biochemical activity assay (Kinase-Glo Plus, ATP depletion)
Method in brief: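 Turnover is measured as ATP depletion by Kinase-Glo Plus luminescence after a 1 h room-temperature reaction. Compounds span 11 concentrations, 57.4 μM–0.97 nM, in final 20 mM HEPES pH 8.0 with 5 mM MgCl2. The substrate solution held 35 μM ATP; the added solution held 5 nM human or mouse GALK1 and 100 μM galactose.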

[5] = PAMPA permeability
[6] = Tables 2-15, 35 μM ATP, 100 μM galactose, 1 h, bracketed figure after some values is undefined and not reported, read-out: mGALK IC50
[7] = recombinant mouse GALK1, Kinase-Glo Plus ATP depletion, read-out: mGALK
[8] = Tables 2-15, 35 μM ATP, 100 μM galactose, 1 h, bracketed figure after some values (e.g. −1.2) is undefined and not reported, read-out: hGALK IC50
[9] = recombinant human GALK1, Kinase-Glo Plus ATP depletion, read-out: hGALK
[10] = recombinant mouse GALK1, Kinase-Glo Plus ATP depletion, bracketed figure in the cell, e.g. (−1.2), is not defined in the text shown, read-out: mGALK
[11] = microsomal stability half-life, minutes
[12] = recombinant human GALK1, Kinase-Glo Plus ATP depletion, bracketed figure in the cell, e.g. (−1.2), is not defined in the text shown, read-out: hGALK

Chain of recombinant mouse GALK1 (Q9R0N0 whole entry): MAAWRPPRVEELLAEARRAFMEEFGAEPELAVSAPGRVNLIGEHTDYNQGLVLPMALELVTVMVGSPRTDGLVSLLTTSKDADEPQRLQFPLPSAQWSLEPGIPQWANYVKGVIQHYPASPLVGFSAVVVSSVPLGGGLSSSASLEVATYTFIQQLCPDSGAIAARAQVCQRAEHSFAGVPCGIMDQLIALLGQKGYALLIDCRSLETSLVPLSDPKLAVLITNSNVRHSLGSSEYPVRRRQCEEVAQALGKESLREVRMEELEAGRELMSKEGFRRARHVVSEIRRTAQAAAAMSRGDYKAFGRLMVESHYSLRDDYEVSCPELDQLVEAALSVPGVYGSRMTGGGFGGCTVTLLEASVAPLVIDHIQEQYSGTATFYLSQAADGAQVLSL
Chain of recombinant human GALK1 (P51570 whole entry): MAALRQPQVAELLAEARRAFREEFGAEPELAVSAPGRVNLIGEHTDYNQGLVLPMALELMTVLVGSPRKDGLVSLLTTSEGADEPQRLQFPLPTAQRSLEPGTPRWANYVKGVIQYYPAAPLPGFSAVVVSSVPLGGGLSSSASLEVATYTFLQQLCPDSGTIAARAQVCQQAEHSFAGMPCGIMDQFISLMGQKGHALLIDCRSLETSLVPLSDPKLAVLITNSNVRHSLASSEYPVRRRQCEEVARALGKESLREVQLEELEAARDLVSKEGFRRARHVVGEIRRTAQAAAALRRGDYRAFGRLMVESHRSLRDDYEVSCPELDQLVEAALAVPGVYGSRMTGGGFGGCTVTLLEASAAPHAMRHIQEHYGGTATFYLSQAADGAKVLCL

| Structure (SMILES) | IC50 [1, 6] | IC50 [1, 7] | Sol. ([2]; aqueous kinetic solubility) | Metab. Stabil. (m) ([3]; microsomal stability half-life) | IC50 [4, 8] | IC50 [4, 9] | Perm. (1 × 10^−6 cm/sec) ([5]; PAMPA) | IC50 [1, 10] | Metab. Stabil. (m) [3, 11] | IC50 [4, 12] | Sol. [2] | Metab. Stabil. (m) ([3]; microsomal half-life) | Perm. (1 × 10^−6 cm/sec) [5] | mGALK IC50 ([1]; Tables 2-15, 35 μM ATP, 100 μM galactose, 1 h, bracketed figure after some values is undefined and not reported) | mGALK (μM) ([1]; recombinant mouse GALK1, Kinase-Glo Plus ATP depletion) |
| --- | --- | --- | --- | --- | --- | --- | --- | --- | --- | --- | --- | --- | --- | --- | --- |
| CC1=C(C(=O)NCc2cnn(C(C)(C)C)c2)C(c2ccc(C)cc2Cl)N=C(Nc2nc3ccc(F)c(N)c3o2)N1 (centres unmarked) [Compound 132, 2-((7-amino-6-fluorobenzo[d]oxazol-2-yl)amino)-N-((1-(tert-butyl)-1H-pyrazol-4-yl)methyl)-4-(2-chloro-4-methylphenyl)-6-methyl-1,4-dihydropyrimidine-5-carboxamide] | 4.32 µM | 4.32 µM | <1 µg/mL | 14.41 m | 0.77 µM | 0.77 µM | 553.2 1 × 10^−6 cm/sec | – | – | – | – | – | – | – | – |
| CCn1cc(CNC(=O)C2=C(C)NC(Nc3nc4ccc(F)c(N)c4o3)=N[C@@H]2c2ccc(C)cc2Cl)cn1 [Compound 134, (S)-2-((7-amino-6-fluorobenzo[d]oxazol-2-yl)amino)-4-(2-chloro-4-methylphenyl)-N-((1-ethyl-1H-pyrazol-4-yl)methyl)-6-methyl-1,4-dihydropyrimidine-5-carboxamide] | – | 10.9 µM | <1 µg/mL | 8.619 m | – | 1.53 µM | 772.8 1 × 10^−6 cm/sec | – | – | – | – | – | – | – | – |
| CC1=C(C(=O)Nc2cc(C(=O)O)ccn2)[C@H](c2ccc(C)cc2Cl)N=C(Nc2nc3cccc(N)c3o2)N1 [Compound 85, (R)-2-(2-((7-aminobenzo[d]oxazol-2-yl)amino)-4-(2-chloro-4-methylphenyl)-6-methyl-1,4-dihydropyrimidine-5-carboxamido)isonicotinic acid] | 1.41 µM | 1.41 µM | – | – | 0.09 µM | 0.09 µM | – | – | – | – | >53 µg/mL | >30 m | <1 1 × 10^−6 cm/sec | – | – |
| CC1=C(C(=O)NCc2cnn(C)c2)C(c2ccc(C)cc2Cl)N=C(Nc2nc3cccnc3o2)N1 (centres unmarked) [Compound 107, 4-(2-chloro-4-methylphenyl)-6-methyl-N-((1-methyl-1H-pyrazol-4-yl)methyl)-2-(oxazolo[5,4-b]pyridin-2-ylamino)-1,4-dihydropyrimidine-5-carboxamide] | – | – | – | – | 17.2 µM | 17.2 µM | – | – | – | – | 4.8 µg/mL | 3.664 m | 355.44 1 × 10^−6 cm/sec | inactive | in- active |
| CC1=C(C(=O)Nc2cccc(CO)c2)C(c2ccccc2Cl)N=C(Nc2nc3ccccc3o2)N1 (centres unmarked) [Compound 144, 2-(benzo[d]oxazol-2-ylamino)-4-(2-chlorophenyl)-N-(3-(hydroxymethyl)phenyl)-6-methyl-1,4-dihydropyrimidine-5-carboxamide] | 9.68 µM | 9.68 µM | <1 µg/mL | >30 m | – | 3.85 µM | 1124.1 1 × 10^−6 cm/sec | – | – | – | – | – | – | – | – |
| CC1=C(C(=O)NCc2cnn(C)c2)C(c2ccc(Cl)cc2Cl)N=C(Nc2nc3ccc(F)c(N)c3o2)N1 (centres unmarked) [Compound 127, 2-((7-amino-6-fluorobenzo[d]oxazol-2-yl)amino)-4-(2,4-dichlorophenyl)-6-methyl-N-((1-methyl-1H-pyrazol-4-yl)methyl)-1,4-dihydropyrimidine-5-carboxamide] | – | 1.93 µM | 5.9 µg/mL | >30 m | – | 0.22 µM | 166.7 1 × 10^−6 cm/sec | – | – | – | – | – | – | – | – |
| CC1=C(C(=O)NCc2c(C)nn(C)c2C)C(c2ccc(C)cc2Cl)N=C(Nc2nc3cccc(N)c3o2)N1 (centres unmarked) [Compound 113, 2-((7-aminobenzo[d]oxazol-2-yl)amino)-4-(2-chloro-4-methylphenyl)-6-methyl-N-((1,3,5-trimethyl-1H-pyrazol-4-yl)methyl)-1,4-dihydropyrimidine-5-carboxamide] | 6.85 µM | 6.85 µM | – | – | 1.22 µM | 1.22 µM | – | – | – | – | 12.0 µg/mL | 2.369 m | 127.92 1 × 10^−6 cm/sec | – | – |
| CC1=C(C(=O)Nc2cc(C(=O)O)ccn2)C(c2ccc(N3CCCCC3)cc2Cl)N=C(Nc2nc3ccc(F)cc3o2)N1 (centres unmarked) [Compound 58, 2-(4-(2-chloro-4-(piperidin-1-yl)phenyl)-2-((6-fluorobenzo[d]oxazol-2-yl)amino)-6-methyl-1,4-dihydropyrimidine-5-carboxamido)isonicotinic acid] | 12.2 µM | 12.2 µM | – | – | 1.22 µM | – | – | – | – | – | 1.92 µg/mL | >30 m | 1.35 1 × 10^−6 cm/sec | – | – |
| CCn1cc(CNC(=O)C2=C(C)NC(Nc3nc4ccc(F)c(N)c4o3)=NC2c2ccccc2Cl)cn1 (centres unmarked) [Compound 136, 2-((7-amino-6-fluorobenzo[d]oxazol-2-yl)amino)-4-(2-chlorophenyl)-N-((1-ethyl-1H-pyrazol-4-yl)methyl)-6-methyl-1,4-dihydropyrimidine-5-carboxamide] | – | 2.17 µM | 23.87 µg/mL | 17.72 m | – | 0.19 µM | 133.5 1 × 10^−6 cm/sec | – | – | – | – | – | – | – | – |

The next lines start with the values.

| IC50 [1, 6] | IC50 [1, 7] | Sol. ([2]; aqueous kinetic solubility) | Metab. Stabil. (m) ([3]; microsomal stability half-life) | IC50 [4, 8] | IC50 [4, 9] | Perm. (1 × 10^−6 cm/sec) ([5]; PAMPA) | IC50 [1, 10] | Metab. Stabil. (m) [3, 11] | IC50 [4, 12] | Sol. [2] | Metab. Stabil. (m) ([3]; microsomal half-life) | Perm. (1 × 10^−6 cm/sec) [5] | mGALK IC50 ([1]; Tables 2-15, 35 μM ATP, 100 μM galactose, 1 h, bracketed figure after some values is undefined and not reported) | mGALK (μM) ([1]; recombinant mouse GALK1, Kinase-Glo Plus ATP depletion) | Structure (SMILES) |
| --- | --- | --- | --- | --- | --- | --- | --- | --- | --- | --- | --- | --- | --- | --- | --- |
| 19.3 µM | 19.3 µM | <1 µg/mL | >30 m | 12.2 µM | 12.2 µM | 161.4 1 × 10^−6 cm/sec | – | – | – | – | – | – | – | – | CC1=C(C(=O)Nc2ncc(CO)s2)C(c2ccccc2Cl)N=C(Nc2nc3ccccc3o2)N1 (centres unmarked) [Compound 193, 2-(benzo[d]oxazol-2-ylamino)-4-(2-chlorophenyl)-N-(5-(hydroxymethyl)thiazol-2-yl)-6-methyl-1,4-dihydropyrimidine-5-carboxamide] |
| – | – | 6.4 µg/mL | – | – | – | 1044.0 1 × 10^−6 cm/sec | 19.3 µM | >30 m | 3.43 µM | – | – | – | – | – | CC1=C(C(=O)Nc2nncs2)C(c2nn(C)cc2Br)N=C(Nc2nc3ccccc3o2)N1 (centres unmarked) [Compound 265, 2-(benzo[d]oxazol-2-ylamino)-4-(4-bromo-1-methyl-1H-pyrazol-3-yl)-6-methyl-N-(1,3,4-thiadiazol-2-yl)-1,4-dihydropyrimidine-5-carboxamide] |
| – | – | <1 µg/mL | – | – | – | 83.8 1 × 10^−6 cm/sec | 21.7 µM | >30 m | 12.2 µM | – | – | – | – | – | CC1=C(C(=O)Nc2nncs2)C(c2ccccc2C)N=C(Nc2nc3ccccc3o2)N1 (centres unmarked) [Compound 267, 2-(benzo[d]oxazol-2-ylamino)-6-methyl-N-(1,3,4-thiadiazol-2-yl)-4-(o-tolyl)-1,4-dihydropyrimidine-5-carboxamide] |
| – | 10.9 µM | 25.4 µg/mL | >30 m | – | 3.06 µM | 3.3 1 × 10^−6 cm/sec | – | – | – | – | – | – | – | – | CC1=C(C(=O)Nc2cc(C(=O)O)ccc2F)C(c2ccccc2Cl)N=C(Nc2nc3ccccc3o2)N1 (centres unmarked) [Compound 210, 3-(2-(benzo[d]oxazol-2-ylamino)-4-(2-chlorophenyl)-6-methyl-1,4-dihydropyrimidine-5-carboxamido)-4-fluorobenzoic acid] |
| 10.9 µM | 10.9 µM | <1 µg/mL | >30 m | – | 4.32 µM | 173.5 1 × 10^−6 cm/sec | – | – | – | – | – | – | – | – | CC1=C(C(=O)Nc2ccccn2)C(c2ccccc2Cl)N=C(Nc2nc3ccccc3o2)N1 (centres unmarked) [Compound 214, 2-(benzo[d]oxazol-2-ylamino)-4-(2-chlorophenyl)-6-methyl-N-(pyridin-2-yl)-1,4-dihydropyrimidine-5-carboxamide] |
| – | – | 11.1 µg/mL | – | – | – | 185.7 1 × 10^−6 cm/sec | 19.3 µM | >30 m | 13.7 µM | – | – | – | – | – | CC1=C(C(=O)Nc2nncs2)C(c2cccnc2Br)N=C(Nc2nc3ccccc3o2)N1 (centres unmarked) [Compound 262, 2-(benzo[d]oxazol-2-ylamino)-4-(2-bromopyridin-3-yl)-6-methyl-N-(1,3,4-thiadiazol-2-yl)-1,4-dihydropyrimidine-5-carboxamide] |
| 12.2 µM | 12.2 µM | 24.2 µg/mL | 15.67 m | 1.37 µM | – | 807.7 1 × 10^−6 cm/sec | – | – | – | – | – | – | – | – | CC1=C(C(=O)NCc2cnn(C)c2)C(c2ccccc2Cl)N=C(Nc2nc3ccccc3o2)N1 (centres unmarked) [Compound 238, 2-(benzo[d]oxazol-2-ylamino)-4-(2-chlorophenyl)-6-methyl-N-((1-methyl-1H-pyrazol-4-yl)methyl)-1,4-dihydropyrimidine-5-carboxamide] |
| 12.2 µM | 12.2 µM | <1 µg/mL | 1.4 m | 7.69 µM | 7.69 µM | 99.3 1 × 10^−6 cm/sec | – | – | – | – | – | – | – | – | COc1ccccc1CNC(=O)C1=C(C)NC(Nc2nc3ccccc3o2)=NC1c1ccccc1Cl (centres unmarked) [Compound 215, 2-(benzo[d]oxazol-2-ylamino)-4-(2-chlorophenyl)-N-(2-methoxybenzyl)-6-methyl-1,4-dihydropyrimidine-5-carboxamide] |
